Tested on: pre-established subcutaneous PC3 tumors
Test: Tumor growth in PC3 tumor-bearing mice treated i.v. twice a week
Assay type: in vivo, SCID-beige mice
Conditions: i.v. twice weekly from day 19 for ~3 weeks; taxol 5 mg/Kg, doxorubicin 2 mg/Kg, YSA conjugates at 1 and 5 fold molar equivalents of the parent drug dose
Description: Tumor sizes were measured and averages +/−SE are shown. The data in (A) and (B) are from the same experiment and share the same control.

SMILES	tumor growth inhibition compared with vehicle control
COc1cccc2c1C(=O)c1c(O)c3c(c(O)c1C2=O)C[C@@](O)(C(=O)CO)C[C@@H]3O[C@H]1C[C@H](N)[C@H](O)[C@H](C)O1 [doxorubicin]	not significantly different from vehicle control
CC(=O)O[C@H]1C(=O)[C@@]2(C)[C@H]([C@H](OC(=O)c3ccccc3)[C@]3(O)C[C@H](OC(=O)[C@H](O)[C@@H](NC(=O)c4ccccc4)c4ccccc4)C(C)=C1C3(C)C)[C@]1(OC(C)=O)CO[C@@H]1C[C@@H]2O [taxol]	not significantly different from vehicle control

Reference: patent publication US20100240594A1, “TARGETED DELIVERY OF CHEMOTHERAPEUTIC AGENTS” (Burnham Institute for Medical Research, priority 2009, published 2010)
